# Measured values taken from patent publication US12590063B2, “Phenol derivative” (Sumitomo Pharma Co., Ltd., priority 2020, dated 2026).
# Marks after values point to notes of the source that are not given here.
# How the values were obtained:
# Type in all cases: in vivo, rat
# Crl:CD(SD) rats = assay: Evaluation of taste aversion by drinking water; details: two-bottle choice, overnight
# Procedure: Test Example 3: Evaluation of Taste Aversion by Drinking Water
# This test is for evaluating the taste aversion of drugs. The test was carried out by, while keeping Crl:CD(SD) rats (8 rats per group, 8 weeks old at the time of arrival) in home cages, adding the test substance solutions to water bottles. Two water bottles per cage were prepared, each filled with vehicle (sterile water containing 0.05% ethanol) and the test substance solution, and kept overnight, and the amount of water consumed during that period was measured. The proportion of water consumed with the test substance was calculated from the total amount of water consumed from the two water bottles, and the evaluation of taste aversion was carried out. It can be evaluated that the larger the proportion of water consumed with the test substance, the smaller the taste aversion and the smaller the stimulatory properties caused by the test substance.
# normal rats [1] = assay: Evaluation of effect of increasing swallowing in normal rats; details: anesthetized normal rats
# Procedure: Test Example 5: Evaluation of Effect of Increasing Swallowing in Normal Rats
# This test is for evaluating the effect of increasing swallowing function of drugs. It has been reported that induction of the swallowing reflex in normal rats using NaCl-containing water suppresses the number of swallows, and the increase in swallowing function was evaluated using a NaCl-containing solvent. After the induction of anesthesia in Crl:CD(SD) male rats (7 to 8 rats per group, 8 to 9 weeks old, body weight 280 to 310 g: at the time of arrival), the animals were sheared under the jaw with clippers and held in a supine position on a heat pad kept at 37° C. to prevent limb movement. A rat sonde was inserted into the animals' mouths, and the tip of the sonde was retained in the pharynx. Under this condition, the test substance administration solution was administered at 12 ml/h for 10 seconds using an infusion pump, and the swallowing movements were measured for 30 seconds from the initiation of administration. Note that the vehicle used was saline solution containing 1% ethanol and 0.1% Tween 80.
# normal rats [2] = assay: Desensitization of effect of increasing swallowing in normal rats
# Text: Test Example 6: Evaluation with Respect to Desensitization of Effect of Increasing Swallowing in Normal Rats
# TRPV1 agonists are known to induce TRPV1 desensitization when given at high doses or repeatedly. Using the same method as in Test Example 5, the effect of drugs on normal swallowing function in rats to induce desensitization was investigated. After the induction of anesthesia in Crl:CD(SD) male rats (7 to 8 rats per group, 8 to 9 weeks old, body weight 280 to 310 g: at the time of arrival), the animals were sheared under the jaw with clippers and held in a supine position on a heat pad kept at 37° C. to prevent limb movement. A sonde was inserted into the animals' mouths, and the tip of the sonde was retained in the pharynx. Under this condition, the test substance administration solution was administered at 12 ml/h for 10 seconds using an infusion pump, and the swallowing movements were measured for 30 seconds from the initiation of administration. Thereafter, the same test was performed about 5 minutes later, and the evaluation was repeated for a total of five times. Note that the vehicle used was saline solution containing 1% ethanol and 0.1% Tween 80.
# normal rats [3] = assay: Test for eye stimulatory properties in normal rats; details: for Number of eye-wiping (Average ± Standard deviation): 10 μL into the right eye, observed for 1 minute
# Procedure: Test Example 7: Evaluation with Respect to Test for Eye Stimulatory Properties in Normal Rats
# It has been reported that TRPV1 agonists have stimulatory properties and that administration of TRPV1 agonist solutions to the eye can induce wiping behavior. The stimulatory properties of the compounds were investigated using normal rats. Crl:CD(SD) male rats (5 rats per group, 8 weeks old, body weight 271 to 320 g) were held unanesthetized and 10 μL was dropped into the right eye using a micropipette.
smiles,measurement,setting,value
"COc1cc(CNC(=O)CCCC/C=C/C(C)C)ccc1O [Capsaicin, capsaicin, reference compound]",proportion of water consumed with the test substance (% Vehicle),Crl:CD(SD) rats; 0.3 μM in drinking water,71 % Vehicle
same,proportion of water consumed with the test substance (% Vehicle),Crl:CD(SD) rats; 1 μM in drinking water,13 % Vehicle
same,proportion of water consumed with the test substance (% Vehicle),Crl:CD(SD) rats; 3 μM in drinking water,9 % Vehicle
same,number of swallowings compared to the solvent administered group (Dunnett's test),normal rats [1],significantly increased
same,"number of swallowings, Average","normal rats [1]; pharyngeal infusion 12 ml/h for 10 seconds, counted for 30 seconds",14.1*
same,"number of swallows, Average, First time","normal rats [2]; 10 μM, 1st of five administrations about 5 minutes apart",18.2
same,"number of swallows, Average, Second time","normal rats [2]; 10 μM, 2nd of five administrations about 5 minutes apart",13.2
same,"number of swallows, Average, Third time","normal rats [2]; 10 μM, 3rd of five administrations about 5 minutes apart",14
same,"number of swallows, Average, Fourth time","normal rats [2]; 10 μM, 4th of five administrations about 5 minutes apart",9.7**
same,"number of swallows, Average, Fifth time","normal rats [2]; 10 μM, 5th of five administrations about 5 minutes apart",9.5**
same,number of swallows at repeated administrations compared to the 1st administration (Dunnett's test),normal rats [2]; five administrations about 5 minutes apart,significantly reduced at the 4th and 5th administrations
same,Number of eye-wiping (Average ± Standard deviation),normal rats [3]; 1 μM,2.0 ± 2.3
same,Number of eye-wiping (Average ± Standard deviation),normal rats [3]; 3 μM,0.2 ± 0.4
same,Number of eye-wiping (Average ± Standard deviation),normal rats [3]; 10 μM,6.4 ± 6.3
same,Number of eye-wiping (Average ± Standard deviation),normal rats [3]; 30 μM,6.4 ± 4.4
same,Number of eye-wiping (Average ± Standard deviation),normal rats [3]; 100 μM,21.4 ± 9.7
same,number of wiping behaviors versus control (Dunnett's test),normal rats [3]; eye drop in unanesthetized rats,significantly increased the number of wiping behaviors at concentrations of 30 μM and more
